According to PubChem BioAssay (NCI):
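Values below derive from 48-hour exposures of cells grown in 96-well plates, with endpoints linearly interpolated between the two concentrations bracketing the appropriate inhibition level. GI50 marks 50% less growth. The concentration for full growth arrest is given as TGI.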

Columns and labels:
Assay in all cases: NCI-60 cell line screen, 48 h
786-0 renal = tested on: 786-0 renal
A498 renal = tested on: A498 renal
A549 NSCLC = tested on: A549 NSCLC
ACHN renal = tested on: ACHN renal
BT-549 breast = tested on: BT-549 breast
CAKI-1 renal = tested on: CAKI-1 renal
CCRF-CEM leukemia = tested on: CCRF-CEM leukemia
COLO 205 colon = tested on: COLO 205 colon
DU-145 prostate = tested on: DU-145 prostate
EKVX NSCLC = tested on: EKVX NSCLC
HCC-2998 colon = tested on: HCC-2998 colon
HCT-116 colon = tested on: HCT-116 colon
HL-60(TB) leukemia = tested on: HL-60(TB) leukemia
HOP-62 NSCLC = tested on: HOP-62 NSCLC
HOP-92 NSCLC = tested on: HOP-92 NSCLC
HS 578T breast = tested on: HS 578T breast
HT29 colon = tested on: HT29 colon
IGROV1 ovarian = tested on: IGROV1 ovarian
K-562 leukemia = tested on: K-562 leukemia
KM12 colon = tested on: KM12 colon
LOX IMVI melanoma = tested on: LOX IMVI melanoma
M14 melanoma = tested on: M14 melanoma
MALME-3M melanoma = tested on: MALME-3M melanoma
MCF7 breast = tested on: MCF7 breast
MDA-MB-231 breast = tested on: MDA-MB-231 breast
MDA-MB-435 = tested on: MDA-MB-435
MOLT-4 leukemia = tested on: MOLT-4 leukemia
NCI-H226 lung = tested on: NCI-H226 lung
NCI-H23 lung = tested on: NCI-H23 lung
NCI-H460 lung = tested on: NCI-H460 lung
NCI-H522 lung = tested on: NCI-H522 lung
NCI/ADR-RES ovarian = tested on: NCI/ADR-RES ovarian
OVCAR-3 ovarian = tested on: OVCAR-3 ovarian
OVCAR-4 ovarian = tested on: OVCAR-4 ovarian
OVCAR-5 ovarian = tested on: OVCAR-5 ovarian
OVCAR-8 ovarian = tested on: OVCAR-8 ovarian
PC-3 prostate = tested on: PC-3 prostate
RPMI-8226 leukemia = tested on: RPMI-8226 leukemia
RXF 393 renal = tested on: RXF 393 renal
SF-268 CNS = tested on: SF-268 CNS
SF-295 CNS = tested on: SF-295 CNS
SF-539 CNS = tested on: SF-539 CNS
SK-MEL-2 melanoma = tested on: SK-MEL-2 melanoma
SK-MEL-28 melanoma = tested on: SK-MEL-28 melanoma
SK-MEL-5 melanoma = tested on: SK-MEL-5 melanoma
SK-OV-3 ovarian = tested on: SK-OV-3 ovarian
SN12C renal = tested on: SN12C renal
SNB-19 CNS = tested on: SNB-19 CNS
SNB-75 CNS = tested on: SNB-75 CNS
SR leukemia = tested on: SR leukemia
SW-620 colon = tested on: SW-620 colon
T-47D breast = tested on: T-47D breast
TK-10 renal = tested on: TK-10 renal
U251 CNS = tested on: U251 CNS
UACC-257 melanoma = tested on: UACC-257 melanoma
UACC-62 melanoma = tested on: UACC-62 melanoma
UO-31 renal = tested on: UO-31 renal

## O=C(CCl)Nc1ccc(Cc2ccc(NC(=O)CCl)cc2)cc1
786-0 renal
  GI50: 2.09 µM
  TGI: 5.1 µM
A498 renal
  GI50: 18.7 µM
  TGI: 94.1 µM
A549 NSCLC
  GI50: 4.01 µM
  TGI: > 100 µM
ACHN renal
  GI50: 1.56 µM
  TGI: 3.03 µM
BT-549 breast
  GI50: 1.4 µM
  TGI: 4.69 µM
CAKI-1 renal
  GI50: 1.62 µM
  TGI: 3.38 µM
CCRF-CEM leukemia
  GI50: 0.47 µM
  TGI: 3.01 µM
COLO 205 colon
  GI50: 1.97 µM
  TGI: 4.12 µM
DU-145 prostate
  GI50: 2.85 µM
  TGI: 11 µM
EKVX NSCLC
  GI50: 2.23 µM
  TGI: 5.78 µM
HCC-2998 colon
  GI50: 1.8 µM
  TGI: 3.47 µM
HCT-116 colon
  GI50: 0.44 µM
  TGI: 1.03 µM
HL-60(TB) leukemia
  GI50: 2.07 µM
  TGI: 4.84 µM
HOP-62 NSCLC
  GI50: 2.38 µM
  TGI: 6.1 µM
HOP-92 NSCLC
  GI50: 2.09 µM
  TGI: 5.12 µM
HS 578T breast
  GI50: 5.37 µM
  TGI: > 100 µM
HT29 colon
  GI50: 1.73 µM
  TGI: 4.47 µM
IGROV1 ovarian
  GI50: 1.43 µM
  TGI: 4.06 µM
K-562 leukemia
  GI50: 1.67 µM
  TGI: > 100 µM
KM12 colon
  GI50: 1.57 µM
  TGI: 3.17 µM
LOX IMVI melanoma
  GI50: 0.784 µM
  TGI: 2.35 µM
M14 melanoma
  GI50: 1.23 µM
  TGI: 3.2 µM
MALME-3M melanoma
  GI50: 1.39 µM
  TGI: 3.17 µM
MCF7 breast
  GI50: 1.54 µM
  TGI: > 100 µM
MDA-MB-231 breast
  GI50: 1.54 µM
  TGI: 5.06 µM
MDA-MB-435
  GI50: 1.76 µM
  TGI: 4.31 µM
MOLT-4 leukemia
  GI50: 1.44 µM
  TGI: 6.32 µM
NCI-H226 lung
  GI50: 3.14 µM
  TGI: > 100 µM
NCI-H23 lung
  GI50: 1.77 µM
  TGI: 4.52 µM
NCI-H460 lung
  GI50: 2.09 µM
  TGI: 4.75 µM
NCI-H522 lung
  GI50: 1.47 µM
  TGI: 3.5 µM
NCI/ADR-RES ovarian
  GI50: 2.84 µM
  TGI: > 100 µM
OVCAR-3 ovarian
  GI50: 1.17 µM
  TGI: 2.48 µM
OVCAR-4 ovarian
  GI50: 1.42 µM
  TGI: 3.44 µM
OVCAR-5 ovarian
  GI50: 2.27 µM
  TGI: 5.52 µM
OVCAR-8 ovarian
  GI50: 3.17 µM
  TGI: > 100 µM
PC-3 prostate
  GI50: 2.13 µM
  TGI: 6.42 µM
RPMI-8226 leukemia
  GI50: 1.67 µM
  TGI: 4.78 µM
RXF 393 renal
  GI50: 1.43 µM
  TGI: 3.07 µM
SF-268 CNS
  GI50: 1.83 µM
  TGI: 9.56 µM
SF-295 CNS
  GI50: 3.55 µM
  TGI: 19.7 µM
SF-539 CNS
  GI50: 1.66 µM
  TGI: 3.28 µM
SK-MEL-2 melanoma
  GI50: 2.46 µM
  TGI: 7.54 µM
SK-MEL-28 melanoma
  GI50: 2.15 µM
  TGI: 6.06 µM
SK-MEL-5 melanoma
  GI50: 1.37 µM
  TGI: 2.72 µM
SK-OV-3 ovarian
  GI50: 18 µM
  TGI: > 100 µM
SN12C renal
  GI50: 2.38 µM
  TGI: > 100 µM
SNB-19 CNS
  GI50: 1.8 µM
  TGI: 5.14 µM
SNB-75 CNS
  TGI: > 29.3 µM
SR leukemia
  GI50: 0.704 µM
  TGI: 5.56 µM
SW-620 colon
  GI50: 1.92 µM
  TGI: 5.25 µM
T-47D breast
  GI50: 1.65 µM
  TGI: 4.67 µM
TK-10 renal
  GI50: 4.17 µM
  TGI: > 75 µM
U251 CNS
  GI50: 1.4 µM
  TGI: 2.98 µM
UACC-257 melanoma
  GI50: 2.78 µM
  TGI: 9.46 µM
UACC-62 melanoma
  GI50: 1.53 µM
  TGI: 3.34 µM
UO-31 renal
  GI50: 2.77 µM
  TGI: > 23.4 µM
